Calls of active or inactive are those of the source. The rule behind the calls is not given here.
Columns and labels:
[1] = target: T1, Peroxisome proliferator-activated receptor delta (Homo sapiens, UniProt Q03181); test: Transactivation of GAL4-tagged human PPARdelta LBD expressed in human HepG2 cells at 100 nM to 100 uM incubated for 20 to 22 hrs by luciferase reporter gene assay; format: cell-based
T1 sequence (Q03181 whole entry): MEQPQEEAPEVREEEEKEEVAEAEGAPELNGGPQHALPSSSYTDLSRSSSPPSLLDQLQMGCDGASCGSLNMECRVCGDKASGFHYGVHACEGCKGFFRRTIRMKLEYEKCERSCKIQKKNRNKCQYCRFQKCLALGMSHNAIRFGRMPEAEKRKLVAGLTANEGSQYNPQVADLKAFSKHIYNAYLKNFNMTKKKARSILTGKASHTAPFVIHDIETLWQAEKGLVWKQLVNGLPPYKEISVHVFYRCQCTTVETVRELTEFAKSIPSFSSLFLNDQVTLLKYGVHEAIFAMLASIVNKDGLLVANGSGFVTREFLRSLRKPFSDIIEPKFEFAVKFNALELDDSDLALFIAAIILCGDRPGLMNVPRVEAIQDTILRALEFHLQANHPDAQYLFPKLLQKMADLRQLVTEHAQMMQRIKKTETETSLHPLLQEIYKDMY

[2] = target: T2, Peroxisome proliferator-activated receptor alpha (Homo sapiens) (UniProt Q07869); test: Transactivation of GAL4-tagged human PPARalpha LBD expressed in human HepG2 cells at 100 nM to 100 uM incubated for 20 to 22 hrs by luciferase reporter gene assay relative to clofibric acid; format: cell-based
T2 sequence (whole entry): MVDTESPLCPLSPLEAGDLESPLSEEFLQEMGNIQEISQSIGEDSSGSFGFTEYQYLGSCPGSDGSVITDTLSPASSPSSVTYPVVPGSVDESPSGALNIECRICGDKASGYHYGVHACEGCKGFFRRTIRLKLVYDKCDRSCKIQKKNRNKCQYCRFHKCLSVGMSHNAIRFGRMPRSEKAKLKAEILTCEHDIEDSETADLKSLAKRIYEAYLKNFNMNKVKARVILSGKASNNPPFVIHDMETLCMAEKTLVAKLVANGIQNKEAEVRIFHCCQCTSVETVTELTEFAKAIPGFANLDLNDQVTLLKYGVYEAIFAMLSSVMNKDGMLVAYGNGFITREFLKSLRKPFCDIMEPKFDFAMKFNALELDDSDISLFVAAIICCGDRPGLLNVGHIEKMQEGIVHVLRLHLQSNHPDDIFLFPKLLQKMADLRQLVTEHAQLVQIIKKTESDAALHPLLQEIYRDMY

[3] = target: T3, Peroxisome proliferator-activated receptor gamma (Homo sapiens) (UniProt P37231); test: Transactivation of GAL4-tagged human PPARgamma LBD expressed in human HepG2 cells at 100 nM to 100 uM incubated for 20 to 22 hrs by luciferase reporter gene assay relative to rosiglitazone; format: cell-based
T3 sequence (whole entry): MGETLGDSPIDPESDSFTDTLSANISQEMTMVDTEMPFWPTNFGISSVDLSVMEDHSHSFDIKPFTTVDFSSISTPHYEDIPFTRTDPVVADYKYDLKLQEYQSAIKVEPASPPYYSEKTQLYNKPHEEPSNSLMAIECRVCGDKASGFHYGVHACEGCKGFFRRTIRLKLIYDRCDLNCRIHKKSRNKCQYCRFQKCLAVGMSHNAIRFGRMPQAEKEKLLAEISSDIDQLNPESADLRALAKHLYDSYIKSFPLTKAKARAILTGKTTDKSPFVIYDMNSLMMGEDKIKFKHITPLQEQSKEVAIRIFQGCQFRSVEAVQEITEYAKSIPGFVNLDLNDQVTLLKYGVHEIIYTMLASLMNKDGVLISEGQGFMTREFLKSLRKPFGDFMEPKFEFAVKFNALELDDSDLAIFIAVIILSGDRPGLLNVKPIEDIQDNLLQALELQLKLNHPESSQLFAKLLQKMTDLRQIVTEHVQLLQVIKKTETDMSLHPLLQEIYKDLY

[4] = target: T4, Peroxisome proliferator-activated receptor delta (Homo sapiens) (UniProt Q03181); test: Transactivation of GAL4-tagged human PPARdelta LBD expressed in human HepG2 cells at 100 nM to 100 uM incubated for 20 to 22 hrs by luciferase reporter gene assay relative to L165,041; format: cell-based
T4 sequence (whole entry): T1 sequence (Q03181 whole entry)

[5] = target: T5, Peroxisome proliferator-activated receptor alpha (Homo sapiens, UniProt Q07869); test: Transactivation of GAL4-tagged human PPARalpha LBD expressed in human HepG2 cells at 100 nM to 100 uM incubated for 20 to 22 hrs by luciferase reporter gene assay; format: cell-based
T5 sequence (Q07869 whole entry): T2 sequence (whole entry)

[6] = target: T4, Peroxisome proliferator-activated receptor delta (Homo sapiens); test: Agonist activity at PPARdelta in human HepG2 cells assessed as increase in PDK4 RNA expression at 2 uM incubated for 48 hrs by qRT-PCR analysis relative to control; format: cell-based
Liver [7] = test: Ex vivo antiinflammatory activity in Sprague-Dawley rat liver assessed as inhibition of LPS-induced PGE2 production at 1 uM incubated for 4 hrs followed by LPS addition by radioimmunoassay; format: functional, tissue-based
Cortex [8] = test: Ex vivo antiinflammatory activity in Sprague-Dawley rat cortex assessed as inhibition of LPS-induced PGE2 production at 1 uM incubated for 4 hrs followed by LPS addition by radioimmunoassay; format: functional, tissue-based
[9] = target: T6, Peroxisome proliferator-activated receptor gamma (Homo sapiens, UniProt P37231); test: Transactivation of GAL4-tagged human PPARgamma LBD expressed in human HepG2 cells at 100 nM to 100 uM incubated for 20 to 22 hrs by luciferase reporter gene assay; format: cell-based
T6 sequence (P37231 whole entry): T3 sequence (whole entry)

[10] = target: T2, Peroxisome proliferator-activated receptor alpha (Homo sapiens); test: Agonist activity at PPARalpha in human HepG2 cells assessed as increase in CPT1A RNA expression at 100 uM incubated for 48 hrs by qRT-PCR analysis relative to control; format: cell-based
[11] = target: T4, Peroxisome proliferator-activated receptor delta (Homo sapiens); test: Agonist activity at PPARdelta in human HepG2 cells assessed as increase in PDK4 RNA expression at 100 uM incubated for 48 hrs by qRT-PCR analysis relative to control; format: cell-based
[12] = target: T3, Peroxisome proliferator-activated receptor gamma (Homo sapiens); test: Agonist activity at PPARgamma in human HepG2 cells assessed as increase in GLUT1 RNA expression at 100 uM incubated for 48 hrs by qRT-PCR analysis relative to control; format: cell-based
Liver [13] = test: Ex vivo antiinflammatory activity in Sprague-Dawley rat liver assessed as inhibition of LPS-induced PGE2 production at 0.1 to 10 uM incubated for 4 hrs followed by LPS addition by radioimmunoassay; format: functional, tissue-based
Cortex [14] = test: Ex vivo antiinflammatory activity in Sprague-Dawley rat cortex assessed as inhibition of LPS-induced PGE2 production at 0.1 to 10 uM incubated for 4 hrs followed by LPS addition by radioimmunoassay; format: functional, tissue-based
[15] = target: T2, Peroxisome proliferator-activated receptor alpha (Homo sapiens); test: Potency index, ratio of EC50 for GL479 to EC50 for test compound for transactivation of GAL4-tagged human PPARalpha LBD expressed in human HepG2 cells incubated for 20 to 22 hrs by luciferase reporter gene assay; format: cell-based

| Compound | EC50 [1] [nM] | Emax [2] [%] | Emax [3] [%] | Emax [4] [%] | EC50 [5] [nM] | also measured |
| --- | --- | --- | --- | --- | --- | --- |
| CC(C)(Oc1ccc(CCOc2ccc(/N=N/c3ccc([N+](=O)[O-])cc3)cc2)cc1)C(=O)O | 4100 | 11 | 14 | 21 |  |  |
| CC(C)(Oc1ccc(OCCc2ccc(/N=N/c3ccc(C(F)(F)F)cc3)cc2)cc1)C(=O)O |  | 37 | 9 | 12 | 2200 |  |
| CC(C)(Oc1ccc(OCCc2ccc(/N=N/c3ccc(C#N)cc3)cc2)cc1)C(=O)O | 2800 | 61 | 12 | 50 | 1400 |  |
| CC(C)(Oc1ccc(CCOc2ccc(/N=N/c3ccc(C(F)(F)F)cc3)cc2)cc1)C(=O)O | 1800 | 35 | 8 | 24 | 2300 |  |
| CC(C)(Oc1ccc(OCCc2ccc(/N=N/c3ccc([N+](=O)[O-])cc3)cc2)cc1)C(=O)O | 2300 | 19 | 10 | 28 |  |  |
| CCCc1c(OCCCOc2ccc(OCC(=O)O)cc2)ccc(C(C)=O)c1O | 210 |  |  |  |  | Activity [6]: Active; Activity (Liver [7]): inactive; Activity (Cortex [8]): inactive |
| CC(C)(Oc1ccc(OCCc2ccc(/N=N/c3ccccc3)cc2)cc1)C(=O)O | 2800 | 69 | 24 | 35 | 250 | EC50 [9]: 6000 nM; Activity [10]: Active; Activity [11]: Active; Activity [12]: Active; Activity (Liver [13]): Active; Activity (Cortex [14]): Active |
| CC(C)(Oc1ccc(CCOc2ccc(/N=N/c3ccc(C#N)cc3)cc2)cc1)C(=O)O | 6500 | 25 | 12 | 20 | 2600 |  |
| Cc1cccc(Nc2cc(Cl)nc(SCC(=O)O)n2)c1C |  |  |  |  |  | Activity (Liver [7]): Active; Activity (Cortex [8]): Active |
| CC(C)(Oc1ccc(CCOc2ccc(/N=N/c3ccccc3)cc2)cc1)C(=O)O | 6400 | 56 | 13 | 39 | 2100 |  |
| CCc1ccc(CCOc2ccc(CC3SC(=O)NC3=O)cc2)nc1 (stereo not drawn) |  |  |  |  |  | Activity (Liver [7]): Active; Activity (Cortex [8]): Active |

Now from value to compound, other results behind:

| EC50 [1] [nM] | Emax [2] [%] | Emax [3] [%] | Emax [4] [%] | EC50 [5] [nM] | Compound | also measured |
| --- | --- | --- | --- | --- | --- | --- |
| 1100 | 35 | 8 | 29 | 1900 | CC(C)(Oc1ccc(OCCc2ccc(/N=N/c3ccc(Br)cc3)cc2)cc1)C(=O)O |  |
| 1200 | 52 | 10 | 41 | 510 | CC(C)(Oc1ccc(OCCc2ccc(/N=N/c3ccc(Cl)cc3)cc2)cc1)C(=O)O |  |
| 3100 | 60 | 12 | 23 | 380 | CC(C)(Oc1ccc(CCOc2ccc(/N=N/c3ccc(Cl)cc3)cc2)cc1)C(=O)O | Ratio EC50 [15]: 5 |
| 1400 | 32 | 10 | 23 | 2400 | COc1ccc(/N=N/c2ccc(OCCc3ccc(OC(C)(C)C(=O)O)cc3)cc2)cc1 |  |
| 3900 | 71 | 12 | 29 | 810 | CC(C)(Oc1ccc(CCOc2ccc(/N=N/c3ccc(Br)cc3)cc2)cc1)C(=O)O | Ratio EC50 [15]: 3 |

From ChEMBL document CHEMBL4433217, “Novel Phenyldiazenyl Fibrate Analogues as PPAR α/γ/δ Pan-Agonists for the Amelioration of Metabolic Syndrome” (ACS Med Chem Lett, 2019)
